The text below walks through data of US9532990B2 (Zhejiang DTRM Biopharma Co. Ltd., priority 2014, dated 2017).

Where two headings read alike, the source gives them in different places.

The target in the experiment is BTK wild type (Homo sapiens (Human), UniProt Q06187). Briefly: Inhibition assay of BTK kinase activity (HTRF). Type of experiment: biochemical. On the procedure: Inhibition Assay of BTK Kinase Activity:
The enzyme reaction mixture of BTK wild type standard HTRF assay contained 1 nM BTK wild type, 1 μM biotin-TK1 peptide, and 30 μM ATP in a buffer. The enzyme reaction were carried out at room temperature for 60 minutes. […] The plates were incubated at room temperature for 60 minutes and then read in the Envision plate reader.
(Time-resolved FRET reads energy transfer from a long-lived donor to a nearby acceptor.)

The mark [1] stands for this setting: all compounds with IC50 of less 10 nM, read-out: IC50 (BTK).

Sequence of BTK wild type (Q06187 whole entry): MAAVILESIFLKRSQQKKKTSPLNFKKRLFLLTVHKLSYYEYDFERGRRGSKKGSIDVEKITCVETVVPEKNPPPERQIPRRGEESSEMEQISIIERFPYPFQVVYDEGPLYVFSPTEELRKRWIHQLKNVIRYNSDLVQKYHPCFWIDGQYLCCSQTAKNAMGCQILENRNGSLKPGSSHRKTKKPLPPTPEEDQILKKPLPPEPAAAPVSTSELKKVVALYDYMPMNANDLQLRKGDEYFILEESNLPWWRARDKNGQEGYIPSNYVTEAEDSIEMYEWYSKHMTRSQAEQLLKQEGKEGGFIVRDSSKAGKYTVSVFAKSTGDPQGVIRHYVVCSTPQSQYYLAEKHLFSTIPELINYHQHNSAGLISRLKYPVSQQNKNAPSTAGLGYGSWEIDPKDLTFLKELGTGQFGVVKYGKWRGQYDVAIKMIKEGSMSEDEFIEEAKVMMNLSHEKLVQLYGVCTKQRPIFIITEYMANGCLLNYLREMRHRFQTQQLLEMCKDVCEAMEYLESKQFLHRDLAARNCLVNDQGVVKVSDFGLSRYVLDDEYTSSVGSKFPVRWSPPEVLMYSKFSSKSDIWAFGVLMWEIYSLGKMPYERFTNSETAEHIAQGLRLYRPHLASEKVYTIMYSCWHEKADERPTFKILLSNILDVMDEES

With `C=CC(=O)N1CCCC(n2nc(-c3ccc(C(=O)c4ccc(F)cc4)c(F)c3)c3c(N)ncnc32)C1` (stereo not shown) [Compound 1, 1-(3-(4-amino-3-(3-fluoro-4-(4-fluorobenzoyl)phenyl)-1H-pyrazolo[3,4-d]pyrimidin-1-yl)piperidin-1-yl)prop-2-en-1-one], the half-inhibitory concentration (IC50) (read-out: BTK IC50) amounted to 66 nM.

Turning to `C=CC(=O)N1CCCC(n2nc(-c3ccc(C(=O)c4ccc(F)cc4)cc3F)c3c(N)ncnc32)C1` (stereo not shown) [Compound 2, 1-(3-(4-amino-3-(2-fluoro-4-(4-fluorobenzoyl)phenyl)-1H-pyrazolo[3,4-d]pyrimidin-1-yl)piperidin-1-yl)prop-2-en-1-one], the IC50 (read-out: BTK IC50) worked out at 5 nM.

`C=CC(=O)N1CCCC(n2nc(-c3ccc(C(=O)c4cccc(F)c4)c(F)c3)c3c(N)ncnc32)C1` (stereo not shown) [Compound 3, 1-(3-(4-amino-3-(3-fluoro-4-(3-fluorobenzoyl)phenyl)-1H-pyrazolo[3,4-d]pyrimidin-1-yl)piperidin-1-yl)prop-2-en-1-one]: where the note is “read-out: BTK IC50”, the IC50 was found to be 10 nM.

Regarding `C=CC(=O)N1CCCC(n2nc(-c3ccc(C(=O)c4ccccc4F)cc3F)c3c(N)ncnc32)C1` (stereo not shown) [Compound 4, 1-(3-(4-amino-3-(2-fluoro-4-(2-fluorobenzoyl)phenyl)-1H-pyrazolo[3,4-d]pyrimidin-1-yl)piperidin-1-yl)prop-2-en-1-one], where the note is “read-out: BTK IC50”, the IC50 amounted to 2 nM.

Take `Cc1oncc1C(=O)N1CCCC(n2nc(-c3ccc(C(=O)c4cccc(F)c4)cc3F)c3c(N)ncnc32)C1` (stereo not shown) [Compound 6, (3-(4-amino-3-(2-fluoro-4-(3-fluorobenzoyl)phenyl)-1H-pyrazolo[3,4-d]pyrimidin-1-yl)piperidin-1-yl)(5-methylisoxazol-4-yl)methanone]: under “read-out: BTK IC50”, the 50% inhibitory concentration (IC50) is 138 nM.

For the molecule `C/C(O)=C(/C#N)C(=O)N1CCCC(n2nc(-c3ccc(C(=O)c4cccc(F)c4)cc3F)c3c(N)ncnc32)C1` (stereo not shown) [Compound 7, (E)-2-(3-(4-amino-3-(2-fluoro-4-(3-fluorobenzoyl)phenyl)-1H-pyrazolo[3,4-d]pyrimidin-1-yl)piperidine-1-carbonyl)-3-hydroxybut-2-enenitrile], the IC50 (read-out: BTK IC50) amounted to 730 nM.

Consider `C=CS(=O)(=O)N1CCCC(n2nc(-c3ccc(C(=O)c4cccc(F)c4)cc3F)c3c(N)ncnc32)C1` (stereo not shown) [Compound 8, (4-(4-amino-1-(1-(vinylsulfonyl)piperidin-3-yl)-1H-pyrazolo[3,4-d]pyrimidin-3-yl)-3-fluorophenyl)(3-fluorophenyl)methanone], for which the IC50 (read-out: BTK IC50) turned out to be 2 nM.

For `Nc1ncnc2c1c(-c1ccc(C(=O)c3cccc(F)c3)cc1F)nn2C1CCCN(C(=O)C2CO2)C1` (stereo not shown) [Compound 9, (3-(4-amino-3-(2-fluoro-4-(3-fluorobenzoyl)phenyl)-1H-pyrazolo[3,4-d]pyrimidin-1-yl)piperidin-1-yl)(oxiran-2-yl)methanone], the IC50 (read-out: BTK IC50) is 83 nM.

In the case of `CC(C)(C)OC(=O)N1CCCC(n2nc(-c3ccc(Oc4ccccc4[N+](=O)[O-])cc3F)c3c(N)ncnc32)C1` (stereo not shown) [Compound 10, tert-butyl 3-(4-amino-3-(2-fluoro-4-(2-nitrophenoxy)phenyl)-1H-pyrazolo[3,4-d]pyrimidin-1-yl)piperidine-1-carboxylate], under “read-out: BTK IC50”, the IC50 is 1970 nM.

As to `C=CC(=O)N1CCCC(n2nc(-c3ccc(Oc4c(F)c(F)cc(F)c4F)cc3F)c3c(N)ncnc32)C1` (stereo not shown) [Compound 11, 1-(3-(4-amino-3-(2-fluoro-4-(2,3,5,6-tetrafluorophenoxy)phenyl)-1H-pyrazolo[3,4-d]pyrimidin-1-yl)piperidin-1-yl)prop-2-en-1-one], the IC50 is below 10 nM under setting [1] and 0.8 nM (read-out: BTK IC50).

As for `C=CC(=O)N1CCCC(n2nc(-c3ccc(Oc4cccc(F)c4[N+](=O)[O-])cc3F)c3c(N)ncnc32)C1` (stereo not shown) [Compound 12, 1-(3-(4-amino-3-(2-fluoro-4-(3-fluoro-2-nitrophenoxy)phenyl)-1H-pyrazolo[3,4-d]pyrimidin-1-yl)piperidin-1-yl)prop-2-en-1-one], the half-maximal inhibitory concentration (IC50) is below 10 nM under setting [1] and 2 nM (read-out: BTK IC50).

Take `C=CC(=O)N[C@H]1CC[C@@H](n2nc(-c3ccc(Oc4cccc(F)c4)cc3F)c3c(N)ncnc32)CC1` [Compound 13, N-((1s,4s)-4-(4-amino-3-(2-fluoro-4-(3-fluorophenoxy)phenyl)-1H-pyrazolo[3,4-d]pyrimidin-1-yl)cyclohexyl)acrylamide]: the 50% inhibitory concentration (IC50) by setting is: under setting [1], below 10 nM; (read-out: BTK IC50) 1 nM.

With `C=CC(=O)N[C@H]1CC[C@H](n2nc(-c3ccc(Oc4cccc(F)c4)cc3F)c3c(N)ncnc32)CC1` [Compound 14, N-((1r,4r)-4-(4-amino-3-(2-fluoro-4-(3-fluorophenoxy)phenyl)-1H-pyrazolo[3,4-d]pyrimidin-1-yl)cyclohexyl)acrylamide], under “read-out: BTK IC50”, the IC50 is 9 nM.

`C=CC(=O)N1CCC(n2nc(-c3ccc(Oc4cccc(F)c4)cc3F)c3c(N)ncnc32)C1` (stereo not shown) [Compound 15, 1-(3-(4-amino-3-(2-fluoro-4-(3-fluorophenoxy)phenyl)-1H-pyrazolo[3,4-d]pyrimidin-1-yl)pyrrolidin-1-yl)prop-2-en-1-one]: the IC50 by setting is: under setting [1], below 10 nM; (read-out: BTK IC50) 3 nM.

On to `C=CC(=O)N[C@@H]1CC[C@@H](n2nc(-c3ccc(Oc4cccc(F)c4)cc3F)c3c(N)ncnc32)C1` [Compound 16, N-((1r,3r)-3-(4-amino-3-(2-fluoro-4-(3-fluorophenoxy)phenyl)-1H-pyrazolo[3,4-d]pyrimidin-1-yl)cyclopentyl)acrylamide], for which the IC50 is below 10 nM under setting [1] and 3 nM (read-out: BTK IC50).

On to `C=CC(=O)N[C@H]1CC[C@@H](n2nc(-c3ccc(Oc4cccc(F)c4)cc3F)c3c(N)ncnc32)C1` [Compound 17, N-((1s,3r)-3-(4-amino-3-(2-fluoro-4-(3-fluorophenoxy)phenyl)-1H-pyrazolo[3,4-d]pyrimidin-1-yl)cyclopentyl)acrylamide], for which the IC50 by setting is: under setting [1], below 10 nM; (read-out: BTK IC50) 4 nM.

For `C=CC(=O)N1CCCC(n2nc(-c3ccc(Oc4cccc(F)c4)cc3F)c3c(N)ncnc32)C1` (stereo not shown) [Compound 18, 1-(3-(4-amino-3-(2-fluoro-4-(3-fluorophenoxy)phenyl)-1H-pyrazolo[3,4-d]pyrimidin-1-yl)piperidin-1-yl)prop-2-en-1-one], the concentration for half-maximal inhibition (IC50) was below 10 nM under setting [1] and 3 nM (read-out: BTK IC50).

For `C=CC(=O)N1CCCC(n2nc(-c3ccc(Oc4ccccc4NS(C)(=O)=O)cc3F)c3c(N)ncnc32)C1` (stereo not shown) [Compound 19, N-(2-(4-(1-(1-acryloylpiperidin-3-yl)-4-amino-1H-pyrazolo[3,4-d]pyrimidin-3-yl)-3-fluorophenoxy)phenyl)methanesulfonamide], the IC50 (read-out: BTK IC50) is 67 nM.

Take `C=CC(=O)N1CCCC(n2nc(-c3ccc(Oc4cccc(NS(C)(=O)=O)c4)cc3F)c3c(N)ncnc32)C1` (stereo not shown) [Compound 20, N-(3-(4-(1-(1-acryloylpiperidin-3-yl)-4-amino-1H-pyrazolo[3,4-d]pyrimidin-3-yl)-3-fluorophenoxy)phenyl)methanesulfonamide]: the IC50 is below 10 nM under setting [1] and 4 nM (read-out: BTK IC50).

For the molecule `C=CC(=O)N1CCCC(n2nc(-c3ccc(Oc4c(F)ccc(F)c4F)cc3F)c3c(N)ncnc32)C1` (stereo not shown) [Compound 21, 1-(3-(4-amino-3-(2-fluoro-4-(2,3,6-trifluorophenoxy)phenyl)-1H-pyrazolo[3,4-d]pyrimidin-1-yl)piperidin-1-yl)prop-2-en-1-one], the half-inhibitory concentration (IC50) reads like this: under setting [1], below 10 nM; (read-out: BTK IC50) 5 nM.

Take `C=CC(=O)N[C@H]1CC[C@@H](n2nc(-c3ccc(Oc4c(F)c(F)cc(F)c4F)cc3F)c3c(N)ncnc32)CC1` [Compound 22, N-((1s,4s)-4-(4-amino-3-(2-fluoro-4-(2,3,5,6-tetrafluorophenoxy)phenyl)-1H-pyrazolo[3,4-d]pyrimidin-1-yl)cyclohexyl)acrylamide]: the IC50 (read-out: BTK IC50) is 50 nM.

`C=CC(=O)N1CCC(n2nc3c4c(ncnc42)Nc2cc(Oc4c(F)c(F)cc(F)c4F)ccc2-3)C1` (stereo not shown) [Compound 24]: the IC50 (read-out: BTK IC50) was 1020 nM.

As for `C=CC(=O)N[C@@H]1CC[C@@H](n2nc(-c3ccc(Oc4c(F)c(F)cc(F)c4F)cc3F)c3c(N)ncnc32)C1` [Compound 25, N-((1r,3r)-3-(4-amino-3-(2-fluoro-4-(2,3,5,6-tetrafluorophenoxy)phenyl)-1H-pyrazolo[3,4-d]pyrimidin-1-yl)cyclopentyl)acrylamide], the 50% inhibitory concentration (IC50) (read-out: BTK IC50) stood at 17 nM.

For `C=CC(=O)N[C@H]1CC[C@@H](n2nc(-c3ccc(Oc4c(F)c(F)cc(F)c4F)cc3F)c3c(N)ncnc32)C1` [Compound 26, N-((1s,3r)-3-(4-amino-3-(2-fluoro-4-(2,3,5,6-tetrafluorophenoxy)phenyl)-1H-pyrazolo[3,4-d]pyrimidin-1-yl)cyclopentyl)acrylamide], the concentration for half-maximal inhibition (IC50) (read-out: BTK IC50) is 34 nM.

Regarding `C=CC(=O)N1CCC(n2nc(-c3ccc(Oc4c(F)c(F)cc(F)c4F)cc3F)c3c(N)ncnc32)CC1` [Compound 27, 1-(4-(4-amino-3-(2-fluoro-4-(2,3,5,6-tetrafluorophenoxy)phenyl)-1H-pyrazolo[3,4-d]pyrimidin-1-yl)piperidin-1-yl)prop-2-en-1-one], the half-maximal inhibitory concentration (IC50) (read-out: BTK IC50) turned out to be 223 nM.

`C=CC(=O)NCC1CCC(n2nc(-c3ccc(Oc4c(F)c(F)cc(F)c4F)cc3F)c3c(N)ncnc32)C1` (stereo not shown) [Compound 28, N-((3-(4-amino-3-(2-fluoro-4-(2,3,5,6-tetrafluorophenoxy)phenyl)-1H-pyrazolo[3,4-d]pyrimidin-1-yl)cyclopentyl)methyl)acrylamide]: under “read-out: BTK IC50”, the 50% inhibitory concentration (IC50) came out at 7 nM.

Turning to `C=CC(=O)N1CCC(Cn2nc(-c3ccc(Oc4c(F)c(F)cc(F)c4F)cc3F)c3c(N)ncnc32)C1` (stereo not shown) [Compound 29, 1-(3-((4-amino-3-(2-fluoro-4-(2,3,5,6-tetrafluorophenoxy)phenyl)-1H-pyrazolo[3,4-d]pyrimidin-1-yl)methyl)pyrrolidin-1-yl)prop-2-en-1-one], the IC50 (read-out: BTK IC50) came to 26 nM.

`C=CC(=O)N1CCC(Cn2nc(-c3ccc(Oc4c(F)c(F)cc(F)c4F)cc3F)c3c(N)ncnc32)CC1` [Compound 30, 1-(4-((4-amino-3-(2-fluoro-4-(2,3,5,6-tetrafluorophenoxy)phenyl)-1H-pyrazolo[3,4-d]pyrimidin-1-yl)methyl)piperidin-1-yl)prop-2-en-1-one]: under “read-out: BTK IC50”, the IC50 stood at 24 nM.

The IC50 is the concentration at which inhibition is half-maximal.
